Assay results published in patent US11649510B2, “Screening method for materials that suppress characteristic body odor of elderly people” (Takasago International Corporation, priority 2017, dated 2023).

Columns and labels:
OR2C1 [1] = biological target: T1, OR2C1 (Homo sapiens, UniProt O95371); assay: suppressive effect on the response of OR2C1 to trans-2-nonenal, luciferase reporter gene assay; details: mixed with trans-2-nonenal as analyte; FIGS. 9 and 10
T1 sequence (O95371 1-312): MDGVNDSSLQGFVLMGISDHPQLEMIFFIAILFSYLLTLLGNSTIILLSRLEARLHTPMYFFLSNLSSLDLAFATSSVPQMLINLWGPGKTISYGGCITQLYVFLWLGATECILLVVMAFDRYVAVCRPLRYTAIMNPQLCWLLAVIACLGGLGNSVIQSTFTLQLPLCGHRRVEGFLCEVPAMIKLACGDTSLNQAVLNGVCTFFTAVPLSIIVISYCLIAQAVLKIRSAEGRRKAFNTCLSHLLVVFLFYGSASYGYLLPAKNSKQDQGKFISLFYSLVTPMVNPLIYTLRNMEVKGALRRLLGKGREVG
Excerpt: Human olfactory receptor genes were obtained by PCR cloning with Human Genomic DNA: Female (Promega) on the basis of their sequence information registered in GenBank. Into pME18S vectors, the N-terminal 20 amino acid residues of bovine rhodopsin were integrated, and subsequently the resulting human olfactory receptor genes were integrated respectively downstream thereof to obtain human olfactory receptor gene expression vectors. […]
After removal of the culture solutions, an odorous substance serving as an analyte, which had been prepared at a given concentration with CD293 (gibco) medium (supplemented with 20 μM L-glutamine), was added in 50 μL volumes to stimulate the cells for 3 hours, followed by luciferase activity measurement in accordance with the usage of a Dual-Luciferase Reporter Assay System (Promega). The response intensity of each olfactory receptor polypeptide was expressed as a fold increase value, which was determined by dividing the luciferase activity generated upon stimulation with the odorous substance by the luciferase activity generated in a test system not containing the odorous substance.

OR4E2 = biological target: T2, OR4E2 (Homo sapiens, UniProt Q8NGC2, Q234R/V118M); assay: luciferase reporter gene assay, response of OR4E2 to odorous substance; format: cell-based
T2 sequence (Q8NGC2 1-313 V118M/Q234R): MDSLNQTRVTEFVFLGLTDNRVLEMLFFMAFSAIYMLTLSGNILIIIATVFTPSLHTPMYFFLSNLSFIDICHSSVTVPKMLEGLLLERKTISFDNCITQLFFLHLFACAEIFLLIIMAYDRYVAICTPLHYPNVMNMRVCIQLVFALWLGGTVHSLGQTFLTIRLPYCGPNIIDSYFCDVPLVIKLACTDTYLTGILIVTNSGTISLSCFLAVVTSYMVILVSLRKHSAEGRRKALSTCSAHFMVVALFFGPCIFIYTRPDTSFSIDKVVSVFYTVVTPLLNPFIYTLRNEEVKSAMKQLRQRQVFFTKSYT

OR52N2 = biological target: T3, OR52N2 (Homo sapiens, UniProt Q8NGI0); assay: luciferase reporter gene assay, response of OR52N2 to odorous substance; format: cell-based
T3 sequence (Q8NGI0 1-321): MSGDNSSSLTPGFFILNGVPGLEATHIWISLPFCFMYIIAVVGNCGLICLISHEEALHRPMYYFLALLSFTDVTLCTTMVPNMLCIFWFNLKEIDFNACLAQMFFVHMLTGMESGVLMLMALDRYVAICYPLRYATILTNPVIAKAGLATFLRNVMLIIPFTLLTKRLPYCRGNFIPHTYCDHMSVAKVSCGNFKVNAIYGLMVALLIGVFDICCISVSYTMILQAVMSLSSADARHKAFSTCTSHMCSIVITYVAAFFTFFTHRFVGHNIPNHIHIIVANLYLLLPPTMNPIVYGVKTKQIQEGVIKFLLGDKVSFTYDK

OR2C1 [2] = biological target: T1, OR2C1; assay: luciferase reporter gene assay, response of OR2C1 to odorous substance; format: cell-based
OR5P3 = biological target: T4, OR5P3 (Homo sapiens, UniProt Q8WZ94); assay: luciferase reporter gene assay, response of OR5P3 to odorous substance; format: cell-based
T4 sequence (Q8WZ94 1-311): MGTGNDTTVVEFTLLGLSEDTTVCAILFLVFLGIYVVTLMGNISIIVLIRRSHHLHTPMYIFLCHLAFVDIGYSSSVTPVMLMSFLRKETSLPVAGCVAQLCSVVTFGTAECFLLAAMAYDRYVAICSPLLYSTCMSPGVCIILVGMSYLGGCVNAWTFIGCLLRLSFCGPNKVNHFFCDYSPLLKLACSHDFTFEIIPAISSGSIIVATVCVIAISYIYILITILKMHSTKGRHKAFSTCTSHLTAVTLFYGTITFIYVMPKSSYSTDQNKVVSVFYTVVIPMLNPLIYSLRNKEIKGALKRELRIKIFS

OR1D2 = biological target: T5, OR1D2 (Homo sapiens, UniProt P34982); assay: luciferase reporter gene assay, response of OR1D2 to odorous substance; format: cell-based
T5 sequence (P34982 1-312): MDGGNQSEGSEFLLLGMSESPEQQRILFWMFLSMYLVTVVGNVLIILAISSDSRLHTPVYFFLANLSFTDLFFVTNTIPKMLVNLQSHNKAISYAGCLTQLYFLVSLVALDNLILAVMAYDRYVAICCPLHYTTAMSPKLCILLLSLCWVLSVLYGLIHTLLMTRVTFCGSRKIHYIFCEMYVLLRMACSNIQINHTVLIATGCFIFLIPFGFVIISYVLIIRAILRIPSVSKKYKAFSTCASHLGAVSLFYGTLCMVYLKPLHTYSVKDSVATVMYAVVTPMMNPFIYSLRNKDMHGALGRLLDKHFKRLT

OR7G1 = biological target: T6, OR7G1 (Homo sapiens, UniProt Q8NGA0); assay: luciferase reporter gene assay, response of OR7G1 to odorous substance; format: cell-based; details: trans-2-octenal 50 μM, HEK293T cells expressing OR7G1
T6 sequence (Q8NGA0 1-311): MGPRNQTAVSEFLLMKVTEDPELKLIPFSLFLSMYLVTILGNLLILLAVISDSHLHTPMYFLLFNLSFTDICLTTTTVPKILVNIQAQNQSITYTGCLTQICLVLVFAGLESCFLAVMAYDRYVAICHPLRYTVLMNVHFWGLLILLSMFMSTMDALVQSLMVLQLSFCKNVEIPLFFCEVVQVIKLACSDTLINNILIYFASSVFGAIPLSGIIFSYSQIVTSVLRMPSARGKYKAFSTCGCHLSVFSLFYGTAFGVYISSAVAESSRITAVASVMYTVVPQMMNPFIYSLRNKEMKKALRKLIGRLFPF
Method: (§1) In the same manner as shown in Example 1, the cells engineered to express 402 types of human olfactory receptors were measured for receptor responses to trans-2-octenal (50 μM) by the luciferase reporter gene assay.

OR9I1 = biological target: T7, OR9I1 (Homo sapiens, UniProt Q8NGQ6); assay: luciferase reporter gene assay, response of OR9I1 to odorous substance; format: cell-based; details: trans-2-octenal 50 μM, HEK293T cells expressing OR9I1
T7 sequence (Q8NGQ6 1-314): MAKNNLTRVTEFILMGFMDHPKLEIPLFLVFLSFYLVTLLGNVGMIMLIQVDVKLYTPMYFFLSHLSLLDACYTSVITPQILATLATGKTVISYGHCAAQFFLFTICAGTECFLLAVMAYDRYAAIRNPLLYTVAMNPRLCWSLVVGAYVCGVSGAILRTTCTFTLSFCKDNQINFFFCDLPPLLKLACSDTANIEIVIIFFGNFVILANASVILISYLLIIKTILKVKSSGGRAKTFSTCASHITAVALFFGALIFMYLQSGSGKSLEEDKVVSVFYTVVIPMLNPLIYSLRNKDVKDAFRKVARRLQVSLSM
Method: as §1

OR51A7 = biological target: T8, OR51A7 (Homo sapiens, UniProt Q8NH64); assay: luciferase reporter gene assay, response of OR51A7 to odorous substance; format: cell-based; details: trans-2-octenal 50 μM, HEK293T cells expressing OR51A7
T8 sequence (Q8NH64 1-312): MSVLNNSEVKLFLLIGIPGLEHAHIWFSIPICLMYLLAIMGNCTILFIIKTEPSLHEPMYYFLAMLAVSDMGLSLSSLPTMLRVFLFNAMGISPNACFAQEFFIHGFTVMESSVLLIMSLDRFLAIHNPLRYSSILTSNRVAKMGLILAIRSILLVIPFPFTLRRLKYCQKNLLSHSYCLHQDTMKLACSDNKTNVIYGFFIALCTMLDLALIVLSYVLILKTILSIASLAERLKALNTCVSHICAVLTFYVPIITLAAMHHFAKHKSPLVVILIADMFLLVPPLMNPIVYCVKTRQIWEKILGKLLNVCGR
Method: as §1

## CC/C=C\CCO [cis-3-Hexenol]
OR2C1 [1]
  suppressive effect on the response of OR2C1 to trans-2-nonenal (ratio of fold increase value, test without material set to 100): reducing the response of OR2C1 to trans-2-nonenal in a concentration-dependent manner

## CC1=CC(C)C(C=O)CC1 (stereo not drawn) [dimethyltetrahydrobenzaldehyde]
OR2C1 [1]
  suppressive effect on the response of OR2C1 to trans-2-nonenal (ratio of fold increase value, test without material set to 100): reducing the response of OR2C1 to trans-2-nonenal in a concentration-dependent manner

## CCCCCC/C=C/C=O [trans-2-nonenal]
OR4E2; different concentrations of trans-2-nonenal, FIG. 5, no response in mock test
  receptor response to different concentrations: respond to trans-2-nonenal in a concentration-dependent manner
OR4E2; trans-2-nonenal 60 μM, HEK293T cells expressing OR4E2, 3 hours
  fold increase value (receptor response): ≥ 2
OR52N2; different concentrations of trans-2-nonenal, FIG. 7, no response in mock test
  receptor response to different concentrations: respond to trans-2-nonenal in a concentration-dependent manner
OR52N2; trans-2-nonenal 60 μM, HEK293T cells expressing OR52N2, 3 hours
  fold increase value (receptor response): ≥ 2
OR2C1 [2]; different concentrations of trans-2-nonenal, FIG. 3, no response in mock test
  receptor response to different concentrations: respond to trans-2-nonenal in a concentration-dependent manner
OR2C1 [2]; trans-2-nonenal 60 μM, HEK293T cells expressing OR2C1, 3 hours
  fold increase value (receptor response): ≥ 2
OR5P3; different concentrations of trans-2-nonenal, FIG. 6, no response in mock test
  receptor response to different concentrations: respond to trans-2-nonenal in a concentration-dependent manner
OR5P3; trans-2-nonenal 60 μM, HEK293T cells expressing OR5P3, 3 hours
  fold increase value (receptor response): ≥ 2
OR1D2; different concentrations of trans-2-nonenal, FIG. 2, no response in mock test
  receptor response to different concentrations: respond to trans-2-nonenal in a concentration-dependent manner
OR1D2; trans-2-nonenal 60 μM, HEK293T cells expressing OR1D2, 3 hours
  fold increase value (receptor response): ≥ 2

## CCCCC/C=C/C=O [trans-2-octenal]
OR7G1
  fold increase value (receptor response): ≥ 2
OR9I1
  fold increase value (receptor response): ≥ 2
OR4E2; trans-2-octenal 50 μM, HEK293T cells expressing OR4E2
  fold increase value (receptor response): ≥ 2
OR2C1 [2]; trans-2-octenal 50 μM, HEK293T cells expressing OR2C1
  fold increase value (receptor response): ≥ 2
OR51A7
  fold increase value (receptor response): ≥ 2
OR5P3; trans-2-octenal 50 μM, HEK293T cells expressing OR5P3
  fold increase value (receptor response): ≥ 2
